Like-named read-outs stand apart in the source and are kept apart here.
Key:
[1] = tested on: H1975 cells (EGFR-L858R/T790M); test: CellTiter-Glo viability assay, H1975; conditions: Homo sapiens, NCI-H1975, 96 h
[2] = Plasma protein binding, human; type: in vitro ADME; conditions: equilibrium dialysis, 37 °C
Method: (§1) Assessment of plasma protein binding was measured by equilibrium dialysis by incubating plasma
(§2) based determination of final compound concentrations. […]

[3] = Microsomal stability (phase I), mouse; type: in vitro ADME; conditions: mouse liver microsomes, up to 60 minutes, 37 °C
Method: (§3) Microsomal stability (phase I) assay.
(§4) Metabolic stability under oxidative conditions was measured in liver microsomes from different
(§5) time up to 50 minutes (HLM) or 60 minutes (MLM) at 37 °C. Based on the compound half-life t1/2,
(§6) the in vitro intrinsic clearance CLint was calculated. […]

Plasma stability, human = type: in vitro ADME; conditions: 5 µM, 1 h, 37 °C
[4] = tested on: HCC827 cells (EGFR-delE746_A750); test: CellTiter-Glo viability assay, HCC827; type: cell-based; conditions: Homo sapiens, read-out: EGFR CTG EC50 HCC827;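 also: luminescence from ATP content as a measure of metabolically active cells, in RPMI with 10% FBS, compound added as serial dilutions after 24 h of preculture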
Plasma stability, mouse = type: in vitro ADME; conditions: 5 µM, 1 h, 37 °C
[5] = Microsomal stability (phase I), human; type: in vitro ADME; conditions: human liver microsomes, up to 50 minutes, 37 °C
Method: as §3, §4, §5, §6

Caco-2 assay = type: in vitro ADME; conditions: human, Caco-2, 5 μM, pH 7.4, 2 hours
Method: For Caco-2 cell assay, a 10 mM DMSO stock of the compound was diluted to a final concentration of 5 μM in HBSS buffer pH 7.4 and incubated for 2 hours at 37 °C and 5% CO2 on a monolayer of Caco-2 cells (ATCC) that had been grown on a transwell membrane (Millipore, Schwalbach, Germany) for 21 days. The compound concentration was measured in the receiver as well as the donor well. Apparent permeability (Papp) from either the apical to basolateral direction or vice versa […]
is the donor drug concentration at t = 0, and dQ/dt is the amount of drug transported within the given time period of 2 hours. […]

A549 cells (KRAS mutant) = test: CellTiter-Glo viability assay, A549; conditions: Homo sapiens, A549, 96 h, read-out: KRAS CTG EC50 A549
[6] = Plasma protein binding, mouse; type: in vitro ADME; conditions: equilibrium dialysis, 37 °C
Method: as §1, §2

[7] = tested on: A431 cells (EGFR wild type); test: CellTiter-Glo viability assay, A431; conditions: Homo sapiens, A-431, 96 h
[8] = PAMPA (parallel artificial membrane permeability assay); type: in vitro ADME; conditions: pH 7.4, 500 µM, 16 hours
Method: masses and 0.02 Da for fragment ions. FDR was adjusted to 1% on peptide spectrum match […]
as §3
Metabolic stability under oxidative conditions was measured in liver microsomes from different species by LC/MS-based measuring of depletion of compound at a concentration of 3 µM over time up to 50 minutes (HLM) or 60 minutes (MLM) at 37 °C. Based on the compound half-life t1/2, the in vitro intrinsic clearance CLint was calculated.
Plasma stability was measured by LC/MS-based determination of the percentage of remaining compounds at a concentration of 5 µM after incubation in plasma obtained from different species […]
Assessment of plasma protein binding was measured by equilibrium dialysis by incubating plasma with the compound of interest at a concentration of 5 µM for 6 h at 37 °C followed by LC/MS-based determination of final compound concentrations.
PAMPA (Parallel artificial membrane permeability assay). […]
temperature in a wet chamber, the optical density of the solution in the receiver well was measured between 250 and 500 nm in intervals of 10 nm. The percent flux was calculated from […]

H358 cells (KRAS mutant) = test: CellTiter-Glo viability assay, H358; type: cell-based; conditions: Homo sapiens, read-out: KRAS CTG EC50 H358;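 also: viable cell number estimated from ATP-dependent luminescence following exposure to serially diluted inhibitor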
EGFR-wt [9] = target: T1, EGFR-wt (Homo sapiens, UniProt P00533); test: HTRF KinEASE-TK activity-based assay, EGFR-wt; conditions: EGFR HTRF IC50 wt, ATP at Km (9.5 µM), 30 min preincubation; mean ± SD of three independent measurements in duplicates
EGFR-wt [10] = target: T1, EGFR-wt; test: Kinetic characterization (Ki, kinact), EGFR-wt
EGFR-L858R [11] = target: T2, EGFR-L858R (Homo sapiens, UniProt P00533, L858R); test: Kinetic characterization (Ki, kinact), EGFR-L858R
[12] = tested on: EGFR and downstream cascade phosphorylation in H1975 cells; test: Western blot analysis in H1975 cells; type: cell-based; conditions: 1 h inhibitor then EGF stimulation
Method: and incubated at 37 °C and 5% CO2. On day 2 cells were starved over night with media containing 0.5% FBS to be incubated on day 3 for 1 h with EGFR inhibitors following an additional 30 min of EGF stimulation at 50 ng/mL. The media was discarded and cells were washed once with DPBS
1x. Using 100 μL per well of lysis buffer, cells were then scraped off and lysed while rotating (Stuart Scientific, Staffordshire, UK) for 1 h at 4 °C. […] Supernatant was transferred into new tube and protein concentrations were determined with the Bio-Rad Protein Assay (Bio-Rad Laboratories, Hercules, CA). […]
captured and quantified using a FUJI LAS3000 system with Science Lab 2001 ImageGauge 4.0 software (Fujifilm Medial Systems, Stamford CT, USA). […]
glycerol, 1 mM TCEP, pH 8) on ice for 1 h. We analyzed the aliquots by ESI-MS using an Thermo Fisher Scientific Dionex UltiMate 3000 HPLC system connected to a Thermo Fisher Scientific Velos Pro (2d ion trap). Therefore, 5 μL of sample was injected and separated using a Vydac 214TP C4 5 μm column (150 mm x 2.1 mm) starting at 20% of solvent B for 5 minutes followed by a gradient up to 90% of solvent B over 14 min with a flow rate of 210 μL/min with 0.1% TFA in water as solvent A and 0.1% TFA in MeCN as solvent B. A mass range of 700 to 2000 m/z was scanned and raw data was deconvoluted and analyzed with MagTran software (Z.Q. Zhang, A.G. […]

EGFR-L858R/T790M [13] = target: T3, EGFR-L858R/T790M (Homo sapiens, UniProt P00533, L858R/T790M); test: Kinetic characterization (Ki, kinact), EGFR-L858R/T790M
EGFR-L858R [14] = target: T2, EGFR-L858R; test: HTRF KinEASE-TK activity-based assay, EGFR-L858R
EGFR-L858R/T790M [15] = target: T3, EGFR-L858R/T790M; test: HTRF KinEASE-TK activity-based assay, EGFR-L858R/T790M; conditions: EGFR HTRF IC50 L858R/T790M, ATP at Km (4 µM), 30 min preincubation; mean ± SD of three independent measurements in duplicates

T1 sequence (P00533 25-1210): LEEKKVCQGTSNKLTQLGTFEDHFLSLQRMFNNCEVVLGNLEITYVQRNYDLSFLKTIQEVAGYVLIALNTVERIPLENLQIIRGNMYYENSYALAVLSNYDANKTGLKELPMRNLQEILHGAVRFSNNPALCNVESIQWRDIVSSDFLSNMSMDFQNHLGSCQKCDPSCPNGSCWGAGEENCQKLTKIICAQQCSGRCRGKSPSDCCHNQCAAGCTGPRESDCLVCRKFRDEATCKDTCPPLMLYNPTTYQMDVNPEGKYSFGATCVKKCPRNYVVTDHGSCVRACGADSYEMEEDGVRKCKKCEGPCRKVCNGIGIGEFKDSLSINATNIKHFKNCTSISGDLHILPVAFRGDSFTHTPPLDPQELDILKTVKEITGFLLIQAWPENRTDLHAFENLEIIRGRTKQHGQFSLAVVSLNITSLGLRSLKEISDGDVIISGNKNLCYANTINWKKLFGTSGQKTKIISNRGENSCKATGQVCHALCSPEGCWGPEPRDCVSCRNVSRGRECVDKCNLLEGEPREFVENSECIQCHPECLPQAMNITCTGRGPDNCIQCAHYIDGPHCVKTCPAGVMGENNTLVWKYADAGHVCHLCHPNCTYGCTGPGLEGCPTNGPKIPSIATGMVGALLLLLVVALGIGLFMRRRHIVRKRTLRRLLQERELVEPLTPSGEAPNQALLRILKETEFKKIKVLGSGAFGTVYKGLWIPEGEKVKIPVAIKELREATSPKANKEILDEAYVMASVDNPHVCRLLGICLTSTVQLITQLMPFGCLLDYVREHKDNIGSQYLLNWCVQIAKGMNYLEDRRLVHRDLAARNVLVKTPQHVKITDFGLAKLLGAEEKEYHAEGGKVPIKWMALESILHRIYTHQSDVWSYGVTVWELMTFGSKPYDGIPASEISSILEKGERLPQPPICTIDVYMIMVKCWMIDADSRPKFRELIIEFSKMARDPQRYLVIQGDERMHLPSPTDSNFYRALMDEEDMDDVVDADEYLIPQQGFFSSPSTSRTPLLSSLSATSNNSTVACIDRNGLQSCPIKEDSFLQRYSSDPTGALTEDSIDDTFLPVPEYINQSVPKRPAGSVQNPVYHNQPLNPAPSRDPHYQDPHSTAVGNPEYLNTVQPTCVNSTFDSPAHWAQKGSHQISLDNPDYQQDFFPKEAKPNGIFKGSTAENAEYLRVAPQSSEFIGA
T3 sequence (P00533 25-1210 T790M/L858R): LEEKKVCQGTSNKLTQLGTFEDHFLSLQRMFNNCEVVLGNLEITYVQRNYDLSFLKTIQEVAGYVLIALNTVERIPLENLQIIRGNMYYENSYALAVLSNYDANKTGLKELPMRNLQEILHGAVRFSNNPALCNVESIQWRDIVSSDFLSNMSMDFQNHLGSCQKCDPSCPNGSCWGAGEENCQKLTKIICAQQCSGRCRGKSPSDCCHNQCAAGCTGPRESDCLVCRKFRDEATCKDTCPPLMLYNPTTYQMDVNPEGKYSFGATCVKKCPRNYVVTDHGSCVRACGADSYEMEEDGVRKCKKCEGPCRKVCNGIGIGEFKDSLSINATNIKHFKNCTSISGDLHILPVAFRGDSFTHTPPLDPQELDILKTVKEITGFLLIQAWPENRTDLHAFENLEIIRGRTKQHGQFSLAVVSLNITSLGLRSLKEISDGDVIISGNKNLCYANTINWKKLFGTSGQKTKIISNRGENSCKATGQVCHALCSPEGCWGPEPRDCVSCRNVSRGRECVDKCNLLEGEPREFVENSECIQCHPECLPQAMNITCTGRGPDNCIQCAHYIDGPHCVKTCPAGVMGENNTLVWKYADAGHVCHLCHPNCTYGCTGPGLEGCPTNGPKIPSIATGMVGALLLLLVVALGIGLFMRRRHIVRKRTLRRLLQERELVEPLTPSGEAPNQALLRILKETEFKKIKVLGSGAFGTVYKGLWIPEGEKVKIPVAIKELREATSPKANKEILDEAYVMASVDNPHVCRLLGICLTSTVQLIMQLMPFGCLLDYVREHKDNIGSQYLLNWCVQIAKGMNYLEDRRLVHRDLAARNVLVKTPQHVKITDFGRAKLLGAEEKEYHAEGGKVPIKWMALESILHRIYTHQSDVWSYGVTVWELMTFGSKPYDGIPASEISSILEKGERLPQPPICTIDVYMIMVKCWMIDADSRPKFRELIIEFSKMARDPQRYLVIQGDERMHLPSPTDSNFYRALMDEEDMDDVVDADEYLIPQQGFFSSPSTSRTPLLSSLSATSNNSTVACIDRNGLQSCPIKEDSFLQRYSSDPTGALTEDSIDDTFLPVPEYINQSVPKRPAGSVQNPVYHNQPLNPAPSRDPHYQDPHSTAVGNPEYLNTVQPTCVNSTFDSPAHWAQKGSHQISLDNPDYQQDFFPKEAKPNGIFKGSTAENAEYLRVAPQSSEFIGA
T2 sequence (P00533 25-1210 L858R): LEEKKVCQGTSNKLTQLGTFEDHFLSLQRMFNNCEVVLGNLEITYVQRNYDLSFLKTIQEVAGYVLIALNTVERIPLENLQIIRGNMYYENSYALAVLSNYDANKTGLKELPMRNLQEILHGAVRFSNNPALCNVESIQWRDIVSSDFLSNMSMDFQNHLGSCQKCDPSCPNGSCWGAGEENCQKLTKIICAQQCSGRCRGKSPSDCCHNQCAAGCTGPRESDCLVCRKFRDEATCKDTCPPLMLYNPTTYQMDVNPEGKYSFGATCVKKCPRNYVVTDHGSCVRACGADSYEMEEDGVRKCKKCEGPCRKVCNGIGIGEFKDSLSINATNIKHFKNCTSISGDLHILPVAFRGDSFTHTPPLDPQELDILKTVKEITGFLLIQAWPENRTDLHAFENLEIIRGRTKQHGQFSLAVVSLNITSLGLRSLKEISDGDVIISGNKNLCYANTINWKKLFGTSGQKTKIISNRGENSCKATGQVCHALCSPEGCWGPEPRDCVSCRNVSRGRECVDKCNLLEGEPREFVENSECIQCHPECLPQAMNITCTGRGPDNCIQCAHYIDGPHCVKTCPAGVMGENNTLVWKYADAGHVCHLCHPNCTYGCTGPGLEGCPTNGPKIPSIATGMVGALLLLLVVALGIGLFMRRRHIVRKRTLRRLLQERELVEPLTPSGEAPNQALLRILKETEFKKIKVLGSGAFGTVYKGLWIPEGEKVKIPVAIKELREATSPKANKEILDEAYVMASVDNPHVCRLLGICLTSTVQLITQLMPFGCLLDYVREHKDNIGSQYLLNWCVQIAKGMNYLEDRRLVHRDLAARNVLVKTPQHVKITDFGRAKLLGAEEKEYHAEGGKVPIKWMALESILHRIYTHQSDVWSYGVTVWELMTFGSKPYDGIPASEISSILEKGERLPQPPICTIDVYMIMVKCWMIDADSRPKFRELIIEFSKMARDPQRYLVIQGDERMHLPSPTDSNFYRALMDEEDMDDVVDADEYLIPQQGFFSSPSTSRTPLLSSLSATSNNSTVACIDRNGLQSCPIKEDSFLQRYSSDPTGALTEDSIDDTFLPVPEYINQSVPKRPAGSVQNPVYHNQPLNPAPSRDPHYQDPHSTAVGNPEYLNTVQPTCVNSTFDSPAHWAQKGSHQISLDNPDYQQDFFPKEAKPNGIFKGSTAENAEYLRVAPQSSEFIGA

SMILES: C=CC(=O)Nc1cc(Nc2nccc(-c3cn(C)c4ccccc34)n2)c(OC)cc1N(C)CCN(C)C [Osimertinib, osimertinib, reference compound]
- EC50 ([1]; read-out: EGFR CTG EC50 H1975): 16 ± 5 nM
- fraction unbound at 6 h, 5 µM [2]: 0.029
- microsomal CLint at 3 µM [3]: 60 µL/min/mg
- Plasma stability (Plasma stability, human): 78 %remain
- EC50 ([4]; HCC827, 96 h): < 14 nM
- Plasma stability (Plasma stability, mouse): 75 %remain
- microsomal CLint at 3 µM [5]: 4.1 µL/min/mg
- Papp A→B at 2 h, 5 μM (Caco-2 assay; apical to basolateral, read-out: Caco-2: Papp AB): 5 ×10⁻⁶ cm/s
- Papp B→A at 2 h, 5 μM (Caco-2 assay; basolateral to apical, read-out: Caco-2: Papp BA): 6.8 ×10⁻⁶ cm/s
- EC50 (A549 cells (KRAS mutant)): 1830 ± 259 nM
- fraction unbound at 6 h, 5 µM [6]: 0.024
- PAMPA flux [8]: 88%
- EC50 (H358 cells (KRAS mutant); NCI-H358, 96 h): 2840 ± 362 nM

SMILES: C=CC(=O)Nc1cccc(-c2c(-c3ccc(N4CCN(C)CC4)cc3)[nH]c3ncn(C(C)C)c(=O)c23)c1 [Compound 29g]
- EC50 ([1]; read-out: EGFR CTG EC50 H1975, H1975, 96 hours, CellTiter-Glo): 65 ± 11 nM
- microsomal CLint at 3 µM [3]: 8 µL/min/mg
- IC50 (EGFR-wt [9]): 1 ± 0.1 nM
- EC50 ([4]; HCC827, 96 hours, CellTiter-Glo): 67 ± 7 nM
- Ki (EGFR-wt [10]): 10 ± 1 nM
- kinact (EGFR-wt [10]): 0.00167 s⁻¹
- kinact/KI (EGFR-wt [10]): 160000 ± 60000 M⁻¹ s⁻¹
- Ki (EGFR-L858R [11]): 10 ± 1 nM
- kinact (EGFR-L858R [11]): 0.00317 s⁻¹
- kinact/KI (EGFR-L858R [11]): 310000 ± 110000 M⁻¹ s⁻¹
- concentration at which phosphorylation of EGFR and downstream proteins was reduced/inhibited [12]: around 100 nM
- EC50 (A549 cells (KRAS mutant)): 5720 ± 240 nM
- Ki (EGFR-L858R/T790M [13]): 15 ± 3 nM
- kinact (EGFR-L858R/T790M [13]): 0.00433 s⁻¹
- kinact/KI (EGFR-L858R/T790M [13]): 300000 ± 90000 M⁻¹ s⁻¹
- IC50 (EGFR-L858R [14]): 0.4 nM
- EC50 ([7]; read-out: EGFR CTG EC50 A431, A431, 96 hours, CellTiter-Glo): 1410 ± 917 nM
- IC50 (EGFR-L858R/T790M [15]): 1 ± 0.3 nM
- EC50 (H358 cells (KRAS mutant); NCI-H358, H358, 96 hours, CellTiter-Glo): 9390 ± 3380 nM

From article PMC6886544
